Test [1] has as its target T1, Tyrosine-protein kinase receptor UFO (Homo sapiens, UniProt P30530).
T1 sequence (P30530 whole entry): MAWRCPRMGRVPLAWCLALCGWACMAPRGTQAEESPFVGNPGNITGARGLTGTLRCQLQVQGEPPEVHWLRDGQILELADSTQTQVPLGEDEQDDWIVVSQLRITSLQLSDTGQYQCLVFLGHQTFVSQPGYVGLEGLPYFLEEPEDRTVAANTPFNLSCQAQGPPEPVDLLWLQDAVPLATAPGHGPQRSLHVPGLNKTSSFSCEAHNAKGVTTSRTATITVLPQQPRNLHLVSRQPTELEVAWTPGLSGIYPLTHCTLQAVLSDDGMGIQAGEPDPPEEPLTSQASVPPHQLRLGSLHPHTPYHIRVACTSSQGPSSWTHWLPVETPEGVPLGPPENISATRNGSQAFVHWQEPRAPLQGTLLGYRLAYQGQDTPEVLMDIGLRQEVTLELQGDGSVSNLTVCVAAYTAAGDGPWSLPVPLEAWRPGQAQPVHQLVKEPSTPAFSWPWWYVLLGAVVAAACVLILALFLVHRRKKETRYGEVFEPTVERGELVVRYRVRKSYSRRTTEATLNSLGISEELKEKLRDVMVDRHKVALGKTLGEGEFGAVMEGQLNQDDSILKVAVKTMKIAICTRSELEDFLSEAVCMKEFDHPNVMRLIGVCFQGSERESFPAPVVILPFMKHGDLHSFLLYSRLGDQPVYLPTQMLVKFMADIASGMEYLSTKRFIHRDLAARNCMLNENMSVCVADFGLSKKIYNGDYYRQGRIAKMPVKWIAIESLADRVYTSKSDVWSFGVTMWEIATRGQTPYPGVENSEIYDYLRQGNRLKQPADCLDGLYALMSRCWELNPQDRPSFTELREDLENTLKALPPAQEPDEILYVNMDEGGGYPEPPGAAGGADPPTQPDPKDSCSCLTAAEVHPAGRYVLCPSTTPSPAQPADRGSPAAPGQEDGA
Nature of the test: Inhibition of Axl (unknown origin) by cell free assay.

Test [2] has as its target T2, Tyrosine-protein kinase Mer (Homo sapiens, UniProt Q12866).
T2 sequence (Q12866 whole entry): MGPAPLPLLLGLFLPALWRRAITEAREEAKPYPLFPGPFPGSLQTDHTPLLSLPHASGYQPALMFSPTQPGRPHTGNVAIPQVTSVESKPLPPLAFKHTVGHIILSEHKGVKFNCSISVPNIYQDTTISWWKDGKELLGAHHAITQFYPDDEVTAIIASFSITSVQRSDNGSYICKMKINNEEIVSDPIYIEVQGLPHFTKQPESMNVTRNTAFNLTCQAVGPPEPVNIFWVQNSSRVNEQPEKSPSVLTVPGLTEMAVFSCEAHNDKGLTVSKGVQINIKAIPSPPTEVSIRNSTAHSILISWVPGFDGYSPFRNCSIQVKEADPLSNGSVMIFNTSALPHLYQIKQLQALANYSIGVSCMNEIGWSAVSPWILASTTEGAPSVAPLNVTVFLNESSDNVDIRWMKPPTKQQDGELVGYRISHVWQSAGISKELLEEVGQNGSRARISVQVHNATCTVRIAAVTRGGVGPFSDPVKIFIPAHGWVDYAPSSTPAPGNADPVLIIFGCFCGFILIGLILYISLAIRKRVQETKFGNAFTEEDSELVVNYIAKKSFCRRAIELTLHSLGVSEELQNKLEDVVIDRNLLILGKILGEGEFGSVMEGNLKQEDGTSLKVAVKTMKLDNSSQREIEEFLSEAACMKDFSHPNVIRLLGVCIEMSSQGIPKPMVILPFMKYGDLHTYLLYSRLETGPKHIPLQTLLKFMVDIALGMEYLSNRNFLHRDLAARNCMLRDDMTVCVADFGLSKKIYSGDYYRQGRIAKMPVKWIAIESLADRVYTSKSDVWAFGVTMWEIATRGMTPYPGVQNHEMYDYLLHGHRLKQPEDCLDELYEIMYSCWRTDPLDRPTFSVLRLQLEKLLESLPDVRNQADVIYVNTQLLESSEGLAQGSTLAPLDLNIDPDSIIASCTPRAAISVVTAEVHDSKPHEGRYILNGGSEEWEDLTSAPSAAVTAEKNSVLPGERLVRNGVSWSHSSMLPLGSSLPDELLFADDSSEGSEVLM
Nature of the test: Inhibition of Mer (unknown origin) by cell free assay.

The species named for the next test is Homo sapiens. Nature of the test: Ratio of IC50 for Mer (unknown origin) to IC50 for Axl (unknown origin).
Test [3] concerns the target T3, Tyrosine-protein kinase receptor UFO (Mus musculus, UniProt Q00993).
T3 sequence (Q00993 whole entry): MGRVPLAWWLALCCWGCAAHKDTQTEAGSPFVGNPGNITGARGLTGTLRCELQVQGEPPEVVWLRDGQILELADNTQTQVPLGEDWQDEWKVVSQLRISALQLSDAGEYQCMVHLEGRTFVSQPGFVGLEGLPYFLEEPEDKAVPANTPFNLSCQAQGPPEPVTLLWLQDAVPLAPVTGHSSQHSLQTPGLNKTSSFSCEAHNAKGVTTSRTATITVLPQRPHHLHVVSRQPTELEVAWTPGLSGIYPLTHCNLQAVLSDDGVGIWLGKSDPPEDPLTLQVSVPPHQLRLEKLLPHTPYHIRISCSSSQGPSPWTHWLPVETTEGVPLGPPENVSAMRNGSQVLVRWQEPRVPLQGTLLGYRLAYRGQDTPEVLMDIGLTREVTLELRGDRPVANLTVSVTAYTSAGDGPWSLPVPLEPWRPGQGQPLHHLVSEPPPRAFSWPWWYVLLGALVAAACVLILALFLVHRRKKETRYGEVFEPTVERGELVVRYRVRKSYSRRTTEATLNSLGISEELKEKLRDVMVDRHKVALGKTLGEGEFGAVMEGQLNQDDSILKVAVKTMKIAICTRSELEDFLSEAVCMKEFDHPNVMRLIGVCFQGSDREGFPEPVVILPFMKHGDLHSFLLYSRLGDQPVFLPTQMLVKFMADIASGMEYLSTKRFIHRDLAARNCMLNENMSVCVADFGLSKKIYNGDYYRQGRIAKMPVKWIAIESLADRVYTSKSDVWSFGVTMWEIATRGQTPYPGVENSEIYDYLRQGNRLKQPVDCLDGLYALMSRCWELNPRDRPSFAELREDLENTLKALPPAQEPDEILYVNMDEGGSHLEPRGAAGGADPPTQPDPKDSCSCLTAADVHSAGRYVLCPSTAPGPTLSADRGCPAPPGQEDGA
The experiment in a line: Inhibition of Axl in mouse BaF3 cells. Format: cell-based.

A further test concerns BaF3. Nature of the test: Ratio of IC50 for Mer in mouse BaF3 cells to IC50 for Axl in mouse BaF3 cells. The class given is cell-based.
The target of test [4] is T4, Tyrosine-protein kinase Mer (Mus musculus, UniProt Q60805).
T4 sequence (Q60805 whole entry): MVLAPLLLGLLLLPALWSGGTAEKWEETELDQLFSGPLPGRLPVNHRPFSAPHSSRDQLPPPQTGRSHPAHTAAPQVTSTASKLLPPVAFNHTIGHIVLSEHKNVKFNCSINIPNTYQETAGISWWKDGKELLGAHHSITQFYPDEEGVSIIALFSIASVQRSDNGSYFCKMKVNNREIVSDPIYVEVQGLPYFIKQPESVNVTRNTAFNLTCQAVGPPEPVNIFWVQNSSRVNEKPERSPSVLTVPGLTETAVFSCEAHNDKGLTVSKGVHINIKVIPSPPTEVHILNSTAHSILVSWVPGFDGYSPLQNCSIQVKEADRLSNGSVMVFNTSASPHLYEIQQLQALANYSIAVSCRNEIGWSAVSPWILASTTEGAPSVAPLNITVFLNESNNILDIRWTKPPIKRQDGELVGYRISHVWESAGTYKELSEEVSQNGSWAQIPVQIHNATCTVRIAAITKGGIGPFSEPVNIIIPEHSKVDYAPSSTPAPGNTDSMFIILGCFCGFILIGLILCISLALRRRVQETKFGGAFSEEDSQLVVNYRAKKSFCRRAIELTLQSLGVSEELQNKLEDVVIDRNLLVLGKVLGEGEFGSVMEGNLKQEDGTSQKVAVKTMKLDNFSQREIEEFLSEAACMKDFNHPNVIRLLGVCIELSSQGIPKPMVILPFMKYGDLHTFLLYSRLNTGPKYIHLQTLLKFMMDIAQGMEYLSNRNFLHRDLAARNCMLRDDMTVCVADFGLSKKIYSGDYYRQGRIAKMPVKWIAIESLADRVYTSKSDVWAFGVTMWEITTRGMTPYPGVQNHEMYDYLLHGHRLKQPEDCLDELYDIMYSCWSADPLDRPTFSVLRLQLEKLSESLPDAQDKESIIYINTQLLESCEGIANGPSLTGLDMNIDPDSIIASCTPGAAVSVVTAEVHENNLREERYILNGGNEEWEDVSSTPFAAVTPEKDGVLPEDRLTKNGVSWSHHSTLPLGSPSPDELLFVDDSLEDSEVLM
The experiment in a line: Inhibition of Mer in mouse BaF3 cells. Format: cell-based.

Take `CN1CCC(CN2CCc3c(ncnc3Oc3ccc(NC(=O)c4cn(C5CCCC5)c(=O)n(-c5ccc(F)cc5)c4=O)cc3F)C2)CC1`: the IC50 in test [1] came to 2.7 nM; in test [2], 51 nM; in test [3], 7.9 nM; in test [4] it was 34 nM. Moreover, the Ratio IC50 was 19 in the test listed under Homo sapiens and 4.3 in the test with BaF3.
As for `CN1CCC(CN2CCc3c(ncnc3Oc3ccc(NC(=O)c4cn(CC5CC5)c(=O)n(-c5ccc(F)cc5)c4=O)cc3F)C2)CC1`, the IC50 in test [1] turned out to be 1.9 nM; in test [2], 62 nM; in test [3], 8.4 nM; in test [4], 51 nM. The Ratio IC50 in the test filed under Homo sapiens came out at 33; with BaF3 it was 6.1.
For `CC(C)n1cc(C(=O)Nc2ccc(Oc3ncnc4c3CCN(C3CCN(C)CC3)C4)c(F)c2)c(=O)n(-c2ccc(F)cc2)c1=O`, the IC50 in test [1] amounted to 5.6 nM; in test [2], 31 nM; in test [3], 13 nM; in test [4], 55 nM. For the same molecule, the Ratio IC50 stood at 5.5 in the test filed under Homo sapiens and 4.2 in the test with BaF3.
Turning to `CC(C)n1cc(C(=O)Nc2ccc(Oc3ncnc4c3CN(CC3CCOCC3)C4)c(F)c2)c(=O)n(-c2ccc(F)cc2)c1=O`, the concentration for half-maximal inhibition (IC50) in test [1] stood at 8.6 nM; in test [2] it was 34 nM; in test [3], 93 nM; in test [4], 240 nM. Moreover, the Ratio IC50 in the test listed under Homo sapiens was 4; in the test on BaF3, 2.6.
For the molecule `CC(C)n1cc(C(=O)Nc2ccc(Oc3ncnc4c3CN(C(=O)C3CC3)C4)c(F)c2)c(=O)n(-c2ccc(F)cc2)c1=O`, the 50% inhibitory concentration (IC50) was 2.7 nM in test [1], below 4.1 nM in test [2], 12 nM in test [3] and 34 nM in test [4]. Further, the Ratio IC50 is below 1.5 in the test listed under Homo sapiens and 2.8 with BaF3.
`CC(C)n1cc(C(=O)Nc2ccc(Oc3ncnc4c3CCN(C3CN(C)C3)C4)c(F)c2)c(=O)n(-c2ccc(F)cc2)c1=O`: the concentration for half-maximal inhibition (IC50) in test [1] was determined as 3.8 nM; in test [2], 27 nM; in test [3], 5.3 nM; in test [4] it was 24 nM. The figures for the Ratio IC50 in the test filed under Homo sapiens and in the test with BaF3 were 7.1 and 4.5, respectively.
In the case of `CN1CCC(CN2CCc3c(ncnc3Oc3ccc(NC(=O)c4cn(CC5CCC5)c(=O)n(-c5ccc(F)cc5)c4=O)cc3F)C2)CC1`, the IC50 in test [1] came to 2.4 nM; in test [2], 88 nM; in test [3], 16 nM; in test [4] it was 130 nM. The Ratio IC50 came to 37 in the test listed under Homo sapiens and 8.1 in the test with BaF3.

(Values after ChEMBL document CHEMBL4823291, “Discovery of 5,6,7,8-tetrahydropyrido[3,4-d]pyrimidine derivatives as novel selective Axl inhibitors” (Bioorg Med Chem Lett, 2021).)
